Where two headings read alike, the source gives them in different places.
How the values were obtained:
MA-104 cells = assay type: cell-based, Rhesus monkey
Procedure: (§1) MA-104 cells of epithelial morphology were obtained from American Type Culture Collection and were originally derived from Rhesus monkey embryonic kidney. The cells were cultured at 37° C. in a humidified incubator and in an atmosphere of 5% CO2, in Minimal Essential Medium with Earle's balanced salt solution (2 mM glutamine, 1 mM sodium pyruvate, 0.1 mM non-essential amino acids and 1.5 g/L sodium bicarbonate) supplemented with 10% fetal bovine serum from Hyclone, Logan, Utah. The cells were passaged twice a week at a split ratio of 1:4.
(§2) MTT Viability Assays were conducted in a Promega CellTiter 96® Non-Radioactive Cell Kit (Cat # G400) obtained from Promega, Madison, Wis. and used according to manufacturer's instructions.
(§3) Test compounds were prepared by dissolving each compound at 20-μg/mL final concentration in incomplete MA-104 media (Minimal Essential Medium with Earle's balanced salt solution). The compounds were sterilized by filtration through a 0.45-micron filter. The filter-sterilized stock was stored frozen at less than −20° C.
(§4) Virus Inhibition Assay: Virus strain Wa (1:2 dilution from stock) was activated in the presence of 5 μg/mL trypsin and incubated with 1, 10 or 100 μg/mL test compound in serum-free medium at 37° C. for 30 minutes. The activated virus was then diluted 1:5 in serum-free medium containing test compound at the same concentration (to bring the trypsin concentration to 1 μg/mL), added to MA-104 cells, and serially diluted on microtiter plates (5-fold series). The diluent contained 1 μg/mL trypsin and the indicated amount of test compound. After the virus was adsorbed at 37° C. for 1 hour, the virus innoculum was removed, and the media was replaced with serum-free medium containing 1 μg/mL trypsin and the indicated amount of test compound. Cultures were incubated at 37° C. for 3 days, and then cell viability was assessed with the Promega MTT assay following manufacturer's instructions. Each plate contained a dilution series of virus not treated with test compound and each plate contained cells exposed to test compound without virus. All samples were tested in triplicate. Absorbance at 570 nm was determined on a SpectraMax microplate reader (Molecular Devices) equipped with SoftMax Pro (v 3.1.2) data analysis software. The mean absorbance of triplicate determinations, the standard deviation, and the % CV (standard deviation/mean* 100) were calculated. The Q test was used to remove outliers (Anderson, Robert L. 1987 in Practical Statistics for Analytical Chemists, page 31-33, Table 7, Appendix D). Data were fit to a 4-parameter curve using SoftMax Pro software. The curve equation is y=((A−D)/(1+(x/C)^B))[…] which defines a sigmoid shaped curve; A is the lower asymptote as X approaches zero; D is the upper plateau as X approaches infinity; B is the slope in the linear portion of the curve; and C is the ED50.
(§5) Test compound and activated Rotavirus were diluted in serum free medium and added to five wells of MA-104 cells. Another 5 wells on the same microtiter plate were exposed to test compound in serum free medium containing trypsin. After three days incubation, cell viability was assessed with the MTT metabolism assay. Data are expressed as percent of control without virus or compound added.

[1] = system: Human Rotavirus strain Wa; test: Virus Inhibition Assay: MTT viability of MA-104 cells infected with Rotavirus in the presence of test compound; assay type: cell-based; settings: for MA-104 Infection with Lactulose (Mean OD): MTT absorbance 570 nm, 3 days, mean ± sd, triplicate; for Fate of MA-104 cells treated with virus and compound (MTT metabolism assay): in the presence of virus, Table 2; for MA-104 Cell Viability After Exposure to Test Compound with Rotavirus, (+) Virus: percent of control without virus or compound added, MTT after three days, five wells, compound concentration not given
Procedure: as §1
Human Rotavirus strain Wa was obtained from the American Type Culture Collection. A virus stock was diluted 1:5 in media, aliquoted to 0.2 mL per vial and stored at approximately −80° C. The human Rotavirus strain, Wa (TC adapted) (Catalog No. VR-2018), originally isolated from a diarrheic stool from a human patient (Wyatt et al., Science 207: 189-191, 1980; U.S. Pat. No. 4,341,870), is Serotype 1 (G1) for VP7.
as §2, §3, §4, §5

[2] = system: Human Rotavirus strain Wa; settings: previous results referred to in the text; cited from earlier work

Compound: OC[C@H]1O[C@@H](O[C@@H]2[C@@H](CO)O[C@](O)(CO)[C@H]2O)[C@H](O)[C@@H](O)[C@H]1O [Lactulose, 4-O-β-D-galactopyranosil-D-fructofuranose]
- MA-104 Cell Viability After Exposure to Test Compound without Rotavirus, (−) Virus (MA-104 cells; Rhesus monkey, 3 days): 134%
- MA-104 cells, no virus (Mean OD) (MA-104 cells; Rhesus monkey, 3 days, 1 μg/mL): 0.372 ± 0.093
- MA-104 cells, no virus (Mean OD) (MA-104 cells; Rhesus monkey, 3 days, 10 μg/mL): 0.419 ± 0.070
- MA-104 cells, no virus (Mean OD) (MA-104 cells; Rhesus monkey, 3 days, 100 μg/mL): 0.612 ± 0.192
- MA-104 Infection with Lactulose (Mean OD) ([1]; Lactulose 1 μg/mL, virus (diln)-1 10): 0.072 ± 0.007
- MA-104 Infection with Lactulose (Mean OD) ([1]; Lactulose 1 μg/mL, virus (diln)-1 50): 0.132 ± 0.010
- MA-104 Infection with Lactulose (Mean OD) ([1]; Lactulose 1 μg/mL, virus (diln)-1 250): 0.428 ± 0.092
- MA-104 Infection with Lactulose (Mean OD) ([1]; Lactulose 1 μg/mL, virus (diln)-1 1250): 0.756 ± 0.036
- MA-104 Infection with Lactulose (Mean OD) ([1]; Lactulose 1 μg/mL, virus (diln)-1 6250): 0.743 ± 0.064
- MA-104 Infection with Lactulose (Mean OD) ([1]; Lactulose 1 μg/mL, virus (diln)-1 31250): 0.782 ± 0.049
- MA-104 Infection with Lactulose (Mean OD) ([1]; Lactulose 1 μg/mL, virus (diln)-1 156250): 0.804 ± 0.031
- MA-104 Infection with Lactulose (Mean OD) ([1]; Lactulose 10 μg/mL, virus (diln)-1 10): 0.087 ± 0.002
- MA-104 Infection with Lactulose (Mean OD) ([1]; Lactulose 10 μg/mL, virus (diln)-1 50): 0.315 ± 0.168
- MA-104 Infection with Lactulose (Mean OD) ([1]; Lactulose 10 μg/mL, virus (diln)-1 250): 0.541 ± 0.330
- MA-104 Infection with Lactulose (Mean OD) ([1]; Lactulose 10 μg/mL, virus (diln)-1 1250): 0.869 ± 0.088
- MA-104 Infection with Lactulose (Mean OD) ([1]; Lactulose 10 μg/mL, virus (diln)-1 6250): 0.808 ± 0.085
- MA-104 Infection with Lactulose (Mean OD) ([1]; Lactulose 10 μg/mL, virus (diln)-1 31250): 0.820 ± 0.082
- MA-104 Infection with Lactulose (Mean OD) ([1]; Lactulose 10 μg/mL, virus (diln)-1 156250): 0.844 ± 0.030
- MA-104 Infection with Lactulose (Mean OD) ([1]; Lactulose 100 μg/mL, virus (diln)-1 10): 0.133 ± 0.045
- MA-104 Infection with Lactulose (Mean OD) ([1]; Lactulose 100 μg/mL, virus (diln)-1 50): 0.849 ± 0.061
- MA-104 Infection with Lactulose (Mean OD) ([1]; Lactulose 100 μg/mL, virus (diln)-1 250): 0.906 ± 0.081
- MA-104 Infection with Lactulose (Mean OD) ([1]; Lactulose 100 μg/mL, virus (diln)-1 1250): 0.971 ± 0.060
- MA-104 Infection with Lactulose (Mean OD) ([1]; Lactulose 100 μg/mL, virus (diln)-1 6250): 1.012 ± 0.153
- MA-104 Infection with Lactulose (Mean OD) ([1]; Lactulose 100 μg/mL, virus (diln)-1 31250): 0.951 ± 0.038
- MA-104 Infection with Lactulose (Mean OD) ([1]; Lactulose 100 μg/mL, virus (diln)-1 156250): 0.942 ± 0.040
- Protection of MA-104 cells from virus killing ([1]; MA-104 cells infected with Rotavirus, lactulose 1, 10, 100 μg/mL): protected MA-104 cells from virus killing in a dose dependent manner
- Fate of MA-104 cells treated with virus and compound (MTT metabolism assay) [1]: remained viable
- MA-104 Cell Viability After Exposure to Test Compound with Rotavirus, (+) Virus [1]: 119%

Compound: Sialyllactose
- MA-104 Cell Viability After Exposure to Test Compound without Rotavirus, (−) Virus (MA-104 cells): 100%
- Fate of MA-104 cells treated with virus and compound (MTT metabolism assay) [1]: significant cell kill due to virus infection
- MA-104 Cell Viability After Exposure to Test Compound with Rotavirus, (+) Virus [1]: 17%

Compound: arabinogalactan
- MA-104 Cell Viability After Exposure to Test Compound without Rotavirus, (−) Virus (MA-104 cells): 102%
- Fate of MA-104 cells treated with virus and compound (MTT metabolism assay) [1]: significant cell kill due to virus infection
- MA-104 Cell Viability After Exposure to Test Compound with Rotavirus, (+) Virus [1]: 19%

Compound: galactooligosaccharide
- MA-104 Cell Viability After Exposure to Test Compound without Rotavirus, (−) Virus (MA-104 cells): 116%

Compound: kappa-carageenen [Kappa Carageenen]
- Inhibition of Rotavirus according to previous results / previous data [2]: inhibits Rotavirus infection
- MA-104 Cell Viability After Exposure to Test Compound without Rotavirus, (−) Virus (MA-104 cells): 112%
- Fate of MA-104 cells treated with virus and compound (MTT metabolism assay) [1]: remained viable
- MA-104 Cell Viability After Exposure to Test Compound with Rotavirus, (+) Virus [1]: 119%
